According to patent US4263430A, “2-Methyl-5-(2-hydroxystyryl)-1,3,4-thiadiazole” (BASF Aktiengesellschaft, priority 1978, dated 1981):

How the values were obtained:
cardiac beta-1-receptors [1] = conditions: mouse, in vivo
cardiac beta-1-receptors [2] = molecular target: T1, cardiac beta-1-receptors (Felis catus, UniProt Q9TST6); assay: Beta-sympatholytic action: inhibition of isoproterenol-induced tachycardia in narcotized cats; format: in vivo; conditions: for ED50: cat, iv, read-out: Beta-sympatholytic action ED50%: dose which inhibits the isoproterenol-induced tachycardia by 50%; for R.A. (relative activity) / factor by which doses blocking the cardiac beta-1-receptors are smaller than those of propranolol: cats; for R.A. (relative activity): Propranolol = 1.00; for factor by which doses blocking the cardiac beta-1-receptors are smaller than those of propranolol: versus propranolol
T1 construct: increases the pulse rate of narcotized cats (weighing 2-4 kg) by an average of 40%; from tissue; host or cells: heart of living narcotized cats (in vivo, endogenous receptor)
T1 sequence (Q9TST6 whole entry): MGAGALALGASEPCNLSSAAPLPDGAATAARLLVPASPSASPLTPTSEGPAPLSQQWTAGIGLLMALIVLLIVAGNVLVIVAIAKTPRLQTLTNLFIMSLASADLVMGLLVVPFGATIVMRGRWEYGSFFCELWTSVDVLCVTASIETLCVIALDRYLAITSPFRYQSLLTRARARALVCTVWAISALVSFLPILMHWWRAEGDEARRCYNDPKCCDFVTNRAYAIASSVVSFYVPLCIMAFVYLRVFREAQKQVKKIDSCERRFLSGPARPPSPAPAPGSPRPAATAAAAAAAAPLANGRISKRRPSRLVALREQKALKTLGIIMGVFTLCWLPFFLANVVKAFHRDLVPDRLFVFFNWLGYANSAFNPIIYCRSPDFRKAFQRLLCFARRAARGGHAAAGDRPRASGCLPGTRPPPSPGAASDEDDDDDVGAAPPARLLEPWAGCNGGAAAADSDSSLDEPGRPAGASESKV
Procedure: The beta-sympatholytic action of the compounds was tested on cats. […] The following test methods were used:
Beta-sympatholytic agents inhibit the tachycardia.
^1 Inhibition of isoproterenolinduced tachycardia in cats under
hexobarbital narcosis. Compound administered intravenously.

in vivo = conditions: mouse, read-out: Acute toxicity LD50

For `Cc1nnc(/C=C/c2ccccc2OCC(O)CNC(C)C)s1` (stereo not shown) [Compound 3, 2-Methyl-5-[2-(2-hydroxy-3-isopropylamino-propoxy)-styryl]-1,3,4-thiadiazol], the Therapeutic range relative (cardiac beta-1-receptors [1]) was 10.84, the ED50 (cardiac beta-1-receptors [2]) was 0.01 mg/kg and the “R.A. (relative activity)” value (cardiac beta-1-receptors [2]) was 14.10. For the same molecule, the LD50 (in vivo) was 83 mg/kg.
For `Cc1nnc(/C=C/c2ccccc2OCC(O)CNC2CC2)s1` (stereo not shown) [Compound 4, 2-Methyl-5-[2-(2-hydroxy-3-cyclopropylamino-propoxy)-styryl]-1,3,4-thiadiazole], the Therapeutic range relative (cardiac beta-1-receptors [1]) was 7.55, the ED50 (cardiac beta-1-receptors [2]) was 0.012 mg/kg and the “R.A. (relative activity)” value (cardiac beta-1-receptors [2]) was 11.75. For the same molecule, the “factor by which doses blocking the cardiac beta-1-receptors are smaller than those of propranolol” value (cardiac beta-1-receptors [2]) was 12 and the LD50 (in vivo) was 69.4 mg/kg.
With `Cc1nnc(/C=C/c2ccccc2OCC(O)CNC(C)(C)C)s1` (stereo not shown) [Compound 5, 2-Methyl-5-[2-(2-hydroxy-3-tert.-butylamino-propoxy)-styryl]-1,3,4-thiadiazole] the Therapeutic range relative (cardiac beta-1-receptors [1]) was 13.73, the “R.A. (relative activity)” value (cardiac beta-1-receptors [2]) was 25.22 and the “factor by which doses blocking the cardiac beta-1-receptors are smaller than those of propranolol” value (cardiac beta-1-receptors [2]) was 25.
For `C#CC(C)NCC(O)COc1ccccc1/C=C/c1nnc(C)s1` (stereo not shown) [Compound 6, 2-Methyl-5-[2-(2-hydroxy-3-(1-butyn-3-ylamino)-propoxy)styryl]-1,3,4-thiadiazole], the Therapeutic range relative (cardiac beta-1-receptors [1]) was 30.68, the ED50 (cardiac beta-1-receptors [2]) was 0.0111 mg/kg and the “R.A. (relative activity)” value (cardiac beta-1-receptors [2]) was 12.70. For the same molecule, the LD50 (in vivo) was 261 mg/kg.
